From patent US5399790A, “Non-steroid and non-prostanoid inhibitors of steroid and prostaglandin transforming enzymes” (Trustees of The University of Pennsylvania, priority 1993, dated 1995)
Entries after “also recorded” stand apart in the source; their conditions may differ.

Columns and labels:
3α-HSD [1] = biological target: T1, 3α-HSD (Rattus norvegicus, UniProt P23457); test: time dependent inactivation of purified 3α-HSD; type: biochemical; settings: for inactivation of 3α-HSD: result in words; for return of enzyme activity after inactivation: gel filtration or extensive dialysis of the inactivated enzyme
T1 construct: the purified 3α-HSD of rat liver cytosol; from tissue; host or cells: rat liver (cytosol)
T1 sequence (P23457 1-322): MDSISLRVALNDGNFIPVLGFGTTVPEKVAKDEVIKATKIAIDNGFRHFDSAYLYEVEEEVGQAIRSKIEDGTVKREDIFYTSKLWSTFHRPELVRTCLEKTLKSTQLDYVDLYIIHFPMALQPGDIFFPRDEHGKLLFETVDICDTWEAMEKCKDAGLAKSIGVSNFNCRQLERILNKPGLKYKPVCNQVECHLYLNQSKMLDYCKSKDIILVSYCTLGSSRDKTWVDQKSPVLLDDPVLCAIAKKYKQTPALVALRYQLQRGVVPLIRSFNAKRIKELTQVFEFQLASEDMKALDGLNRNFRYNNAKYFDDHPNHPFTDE
Experimental: 3α-HSD (24 μM of purified enzyme) was incubated in systems (30 μl) containing 1.2 mM NAD^+, 10 mM potassium phosphate buffer pH 7.0, 1 mM EDTA and 5% acetonitrile as a co-solvent. Enzyme activity was followed over time by diluting an aliquot of the incubation mixture into a 1 ml assay containing: 2.3 mM NAD^+ and 75 μM androsterone in 0.1M potassium phosphate buffer pH 7.0, with 4% acetonitrile as a co-solvent. Initial rates were determined spectrophotometrically by measuring the rate of NADH formation at 340 nm. Because of the 100 fold or greater dilution of the enzyme into the assay, the initial rate measured is an indication of the enzyme activity remaining at that time. Semi-log plots of the amount of enzyme remaining vs. time are curvilinear (panel a). Initial rates of inactivation (kapp's) were estimated by taking tangents to these curves. Data was replotted as 1/kapp vs 1/allylic alcohol from which kinact (the rate constant for enzyme inactivation) and Ki (the binding constant of the allylic alcohol) were determined, (panel b).
Inactivation of 3α-HSD (24 μM) was conducted in incubations (60 μl) of 10 mM potassium phosphate buffer pH 7.0 containing 1 mM EDTA and 4% acetonitrile as a co-solvent. After the initial enzyme activity was determined (see the legend of FIG. 2 for assay composition), the concentration of inactivator indicated (.cndot.=0 μM, .circle.=2.1 μM, =4.9 μM, .gradient.=10.0 μM, =15.0 μM, []24.0 μM) was added and the sample incubated at 25° C. Over time, samples were withdrawn and diluted into the standard assay to determine the amount of enzyme activity remaining. A secondary plot of the amount of enzyme inactivated vs. the amount of inhibitor added provided the stoichiometry of inactivation when corrected for nonspecific loss of enzyme activity (panel b). The continuous line without points is a theoretical line for a stoichiometry of 1:1.

3α-HSD [2] = biological target: T1, 3α-HSD; test: steady state kinetic measurements and protection from inactivation of 3α-HSD; type: biochemical; settings: for type of inhibition versus NAD+ binding / type of inhibition versus androsterone binding: steady state kinetic measurements
Text: (§1) Three types of experimental evidence indicate that both the enone (III) and the acetylenic ketone (IV) alkylate the pyridine nucleotide binding domain in preference to the steroid binding site of the enzyme. […] Third, chromatographic experiments using the immobilized nucleotide analog Cibacron Blue indicate that both native enzyme and enzyme inactivated with the steroid affinity alkylator, 17β-bromoacetoxy-5α-androstan-17β-ol-3-one, bind tightly to the immobilized nucleotide analog. By contrast, enzyme inactivated by either (III) or (IV) has no affinity for the immobilized nucleotide analogue. This experimental evidence implies that the alkylators (III) and (IV) covalently modify the nucleotide binding domain of 3α-HSD.

3α-HSD [3] = biological target: T1, 3α-HSD; test: chromatography of inactivated 3α-HSD on the immobilized nucleotide analog Cibacron Blue; type: binding
Text: as §1

cyclooxygenase = biological target: T2, cyclooxygenase (Ovis aries, UniProt P05979); test: time dependent inactivation of semi-purified cyclooxygenase (oxygen consumption); type: biochemical, sheep; settings: for inactivation of cyclooxygenase / prostaglandin synthases: result in words
T2 construct: cyclooxygenase obtained from sheep seminal vesicle microsomes; from tissue; host or cells: sheep seminal vesicle microsomes
T2 sequence (P05979 25-600): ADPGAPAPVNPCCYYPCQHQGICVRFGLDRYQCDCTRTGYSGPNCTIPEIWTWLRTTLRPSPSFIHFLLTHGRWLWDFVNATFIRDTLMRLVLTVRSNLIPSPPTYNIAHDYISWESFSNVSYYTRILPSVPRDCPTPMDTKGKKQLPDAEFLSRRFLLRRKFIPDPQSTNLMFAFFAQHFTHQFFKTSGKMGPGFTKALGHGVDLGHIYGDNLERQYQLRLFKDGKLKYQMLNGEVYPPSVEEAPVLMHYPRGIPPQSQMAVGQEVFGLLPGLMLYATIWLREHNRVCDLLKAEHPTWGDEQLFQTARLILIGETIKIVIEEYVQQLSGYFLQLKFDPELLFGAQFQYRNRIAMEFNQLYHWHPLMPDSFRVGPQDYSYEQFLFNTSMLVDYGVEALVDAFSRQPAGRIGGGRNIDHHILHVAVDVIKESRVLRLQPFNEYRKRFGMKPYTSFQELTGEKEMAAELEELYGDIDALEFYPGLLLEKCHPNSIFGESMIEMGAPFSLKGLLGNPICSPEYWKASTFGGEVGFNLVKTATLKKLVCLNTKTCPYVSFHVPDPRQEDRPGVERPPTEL
Experimental: Semi-purified cyclooxygenase (480 μg) was pre-incubated in 100 μl systems containing the inhibitor concentrations indicated, along with 50 mM Tris-HCl (pH=7.2), 100 μM EDTA, 1 mM phenol, 1 μM hematin, 1% Tween, and 10% DMSO. At the time intervals shown, 5 μl aliquots were removed and diluted into a 600 μl assay system containing 100 mM potassium phosphate (pH=7.2), 1 mM phenol, and 100 μM arachidonic acid. The rate of oxygen consumption was then measured. The maximum rate of oxygen uptake observed in these assays was 1.875 μmoles of oxygen consumed per minute per milligram protein.

[4] = system: 3α-HSD and 3(17)β-HSD (Pseudomonas testosteroni), 3α,20α-HSD (Streptomyces hydrogenase), 20α-HSD (rat ovary), 3β-HSD (rat liver), alcohol dehydrogenase …; test: broad screen of the alcohols as suicide substrates of dehydrogenases; type: biochemical; settings: eight dehydrogenases screened
Experimental: A broad screen was conducted in which the allylic (I) and acetylenic alcohols (II) were examined as suicide substrates of the following enzymes: 3α-HSD and 3(17)β-HSD (Pseudomonas testosteroni), 3α,20α-HSD (Streptomyces hydrogenase), 20α-HSD (rat ovary), 3β-HSD (rat liver), alcohol dehydrogenase (yeast), lactate dehydrogenase (porcine heart) and 3α-HSD (rat liver).

[5] = substrate: C#CC(O)c1ccc([N+](=O)[O-])cc1; test: enzymatic oxidation of the allylic and acetylenic alcohols by 3α-HSD in the presence of NAD+; type: biochemical, rat; settings: other: oxidation by 3α-HSD in the presence of NAD+; pH 7.0; 25.0 °C
[6] = substrate: C=CC(O)c1ccc([N+](=O)[O-])cc1; test: as above; type: biochemical, rat; settings: other: oxidation by 3α-HSD in the presence of NAD+; pH 7.0; 25.0 °C

C#CC(=O)c1ccc([N+](=O)[O-])cc1 [IV, 1-(4'-nitrophenyl)-2-propyn-1-one]
inactivation of 3α-HSD (3α-HSD [1]): stoichiometric inactivators; also recorded: rapid and stoichiometric | protection of 3α-HSD from inactivation by NAD+ (3α-HSD [2]): complete protection | protection of 3α-HSD from inactivation by androsterone and other compounds competitive for the steroid binding site (3α-HSD [2]): slow the rate of inactivation but do not completely block this event | type of inhibition versus NAD+ binding (3α-HSD [2]): competitive inhibitors | type of inhibition versus androsterone binding (3α-HSD [2]): non-competitive or mixed inhibitors | binding of the inactivated enzyme to the immobilized nucleotide analog (3α-HSD [3]): no affinity | inactivation of cyclooxygenase / prostaglandin synthases (cyclooxygenase): irreversibly inactivate prostaglandin synthases in a time dependent manner | inactivation of cyclooxygenase / prostaglandin synthases (cyclooxygenase; listed as iv): time and concentration dependent inactivation

C[C@]12CCC(=O)C[C@@H]1CC[C@@H]1[C@@H]2CC[C@]2(C)[C@@H](OC(=O)CBr)CC[C@@H]12 [17β-bromoacetoxy-5α-androstan-17β-ol-3-one, reference compound]
binding of the inactivated enzyme to the immobilized nucleotide analog (3α-HSD [3]): bind tightly

C=CC(O)c1ccc([N+](=O)[O-])cc1 (stereo not drawn) [I, 1-(4'-nitrophenyl)-2-propen-1-ol]
t1/2 life for the enzyme (3α-HSD [1]; at a saturating allylic alcohol concentration): 8 s | molecules of the allylic alcohol oxidized for every molecule of enzyme inactivated (3α-HSD [1]; comparison of the rate of oxidation with that of enzyme inactivation): ≤ 10 molecules | partition ratio kcat/kinact (3α-HSD [1]; estimated, theoretical limit 1): 5.3 | return of enzyme activity after inactivation (3α-HSD [1]): enzyme activity does not return | Ki (3α-HSD [1]; method of Kitz and Wilson, in the presence of NAD+): 1.2 mM | inactivation of 3α-HSD (3α-HSD [1]): highly selective mechanism-based inactivators; also recorded: time-dependent loss of 3α-HSD activity | selectivity as suicide substrate among the screened enzymes [4]: only rat liver 3α-HSD effectively oxidized the alcohols

C=CC(=O)c1ccc([N+](=O)[O-])cc1 [III, 1-(4'-nitrophenyl)-2-propen-1-one]
inactivation of 3α-HSD (3α-HSD [1]): stoichiometric inactivators; also recorded: too fast to accurately measure; also recorded: rapid and stoichiometric | protection of 3α-HSD from inactivation by NAD+ (3α-HSD [2]): complete protection | protection of 3α-HSD from inactivation by androsterone and other compounds competitive for the steroid binding site (3α-HSD [2]): slow the rate of inactivation but do not completely block this event | type of inhibition versus NAD+ binding (3α-HSD [2]): competitive inhibitors | type of inhibition versus androsterone binding (3α-HSD [2]): non-competitive or mixed inhibitors | binding of the inactivated enzyme to the immobilized nucleotide analog (3α-HSD [3]): no affinity | inactivation of cyclooxygenase / prostaglandin synthases (cyclooxygenase): irreversibly inactivate prostaglandin synthases in a time dependent manner | inactivation of cyclooxygenase / prostaglandin synthases (cyclooxygenase; listed as iii): time and concentration dependent inactivation | t1/2 life at saturation (cyclooxygenase; semi-purified cyclooxygenase from sheep seminal vesicle microsomes): 60 to 120 s | IC50 (cyclooxygenase; semi-purified cyclooxygenase from sheep seminal vesicle microsomes, read-out: concentration required to inactivate 50% of the enzyme activity): 0.837 mM

C#CC(O)c1ccc([N+](=O)[O-])cc1 (stereo not drawn) [II, 1-(4'-nitrophenyl)-2-propyn-1-ol]
return of enzyme activity after inactivation (3α-HSD [1]): enzyme activity does not return | inactivation of 3α-HSD (3α-HSD [1]): highly selective mechanism-based inactivators | selectivity as suicide substrate among the screened enzymes [4]: only rat liver 3α-HSD effectively oxidized the alcohols

CC(=O)Oc1ccccc1C(=O)O [acetyl salicylate, reference compound]
cyclooxygenase inactivated (cyclooxygenase; 100 μM, over 20 hours): 50%

B1: 3α-HSD (Rattus norvegicus) (protein)
chain: T1 sequence (P23457 1-322)
notes: the purified 3α-HSD of rat liver cytosol; from tissue; host or cells: rat liver (cytosol)
Vmax [5]: 0.3 µmol/min/mg | Km [6]: 2020 µM | Vmax [6]: 0.58 µmol/min/mg
